Source: patent US7696379B2, “Acetylene derivatives” (Novartis AG, priority 2005, dated 2010)

Experiments:
hmGluR5 = biological target: T1, hmGluR5 (Homo sapiens, UniProt P41594); assay: inhibition of agonist induced inositol phosphate turnover in hmGluR5 expressing cells; type: cell-based; settings: read-out: IC50 concentration, inhibition of quinqualate-induced inositol phosphate turnover
T1 construct: expressed in transfected cells
Text: This can be determined in vitro for example at recombinant human metabotropic glutamate receptors, especially PLC-coupled subtypes thereof such as mGluR5, using different procedures like, for example, measurement of the inhibition of the agonist induced elevation of intracellular Ca^2+ concentration in accordance with L. P. Daggett et al., Neuropharm. Vol. 34, pages 871-886 (1995), P. J. Flor et al., J. Neurochem. Vol. 67, pages 58-63 (1996) or by determination to what extent the agonist induced elevation of the inositol phosphate turnover is inhibited as described by T. Knoepfel et al., Eur. J. Pharmacol. Vol. 288, pages 389-392 (1994), L. P. Daggett et al., Neuropharm. Vol. 67, pages 58-63 (1996) and references cited therein. Isolation and expression of human mGluR subtypes are described in U.S. Pat. No. 5,521,297. Selected agents of the invention show IC50 values for the inhibition of the agonist (e.g. glutamate or quisqualate) induced elevation of intracellular Ca2+ concentration or the agonist (e.g. glutamate or quisqualate) induced inositol phosphate turnover, measured in recombinant cells expressing hmGluR5a of about 1 nM to about 50 μM.

[1] = test system: stress-induced hyperthermia in mice; assay: stress-induced hyperthermia in mice; type: in vivo; settings: control hyperthermia 0.82+/−0.1° C.
Experimental: A. Lecci et al., Psychopharmacol. 101, 255-261]. At doses of about 0.1 to about 30 mg/kg p.o., selected agents of the invention reverse the stress-induced hyperthermia.
With Furan-3-carboxylic acid [(1R,3R)-3-(3-chloro-phenylethynyl)-3-hydroxy-cyclohexyl]-amide, a stress-induced hyperthermia of 0.82+/−0.1° C. was reduced to 0.37+/−0.10° C. at 3 mg/kg p.o., to 0.02+/−0.08° C. at 10 mg/kg p.o. and to −0.49+/−0.12° C. at 30 mg/kg p.o. (p<0.01; p<0.001; p<0.001 respectively).

T1 sequence (P41594 21-1180 isoform P41594-2 limits assumed): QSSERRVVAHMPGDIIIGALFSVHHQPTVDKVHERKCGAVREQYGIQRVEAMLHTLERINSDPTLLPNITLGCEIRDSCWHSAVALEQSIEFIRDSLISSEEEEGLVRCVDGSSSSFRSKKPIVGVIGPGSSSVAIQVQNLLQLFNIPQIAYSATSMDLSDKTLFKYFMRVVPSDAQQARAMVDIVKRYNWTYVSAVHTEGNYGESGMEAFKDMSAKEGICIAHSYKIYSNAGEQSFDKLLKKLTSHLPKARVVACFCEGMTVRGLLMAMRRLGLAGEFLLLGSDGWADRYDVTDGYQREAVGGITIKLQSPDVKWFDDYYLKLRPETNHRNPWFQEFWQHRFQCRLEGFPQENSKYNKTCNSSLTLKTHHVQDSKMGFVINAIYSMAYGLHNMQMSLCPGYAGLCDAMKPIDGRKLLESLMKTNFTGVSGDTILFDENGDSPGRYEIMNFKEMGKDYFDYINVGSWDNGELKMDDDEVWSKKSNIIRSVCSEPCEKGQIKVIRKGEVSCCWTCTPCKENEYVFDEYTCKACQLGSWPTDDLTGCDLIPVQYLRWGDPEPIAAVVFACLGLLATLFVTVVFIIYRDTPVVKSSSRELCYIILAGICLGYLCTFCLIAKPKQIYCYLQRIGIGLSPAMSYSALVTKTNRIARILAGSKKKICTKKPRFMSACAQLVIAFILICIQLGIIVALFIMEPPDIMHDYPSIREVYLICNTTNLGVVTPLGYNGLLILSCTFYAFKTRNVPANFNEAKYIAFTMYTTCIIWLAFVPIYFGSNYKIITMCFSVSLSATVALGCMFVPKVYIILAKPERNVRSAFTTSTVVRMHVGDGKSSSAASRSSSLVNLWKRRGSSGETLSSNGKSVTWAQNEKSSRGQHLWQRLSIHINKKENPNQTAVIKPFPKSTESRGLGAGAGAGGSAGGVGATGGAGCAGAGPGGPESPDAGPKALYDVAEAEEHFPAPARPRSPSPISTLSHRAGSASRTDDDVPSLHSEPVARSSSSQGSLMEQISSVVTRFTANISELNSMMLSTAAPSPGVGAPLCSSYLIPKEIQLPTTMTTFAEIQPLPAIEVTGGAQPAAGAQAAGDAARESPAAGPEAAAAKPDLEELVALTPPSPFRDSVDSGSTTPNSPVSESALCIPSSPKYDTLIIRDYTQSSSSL

SMILES	melting point	also measured
Cc1cccc(C#C[C@@]2(O)CCC[C@@H](NC(=O)c3ccoc3)C2)c1 (racemic) [Example 1.19, Furan-3-carboxylic acid ((±)-(1R,3R)-3-hydroxy-3-m-tolylethynyl-cyclohexyl)-amide]	135 to 138 °C	
O=C(N[C@@H]1CCC[C@](O)(C#Cc2cccc(F)c2)C1)c1cnc[nH]1 (racemic) [Example 1.37, 3H-Imidazole-4-carboxylic acid [(±)-(1R,3R)-3-(3-fluoro-phenylethynyl)-3-hydroxy-cyclohexyl]-amide]	190 to 191 °C	
O=C(N[C@@H]1CCC[C@](O)(C#Cc2cccc(Cl)c2)C1)c1ccoc1 [Example 1, Furan-3-carboxylic acid [(1R,3R)-3-(3-chloro-phenylethynyl)-3-hydroxy-cyclohexyl]-amide]		IC50 (hmGluR5): 0.028 µM; stress-induced hyperthermia ([1]; 3 mg/kg p.o., p<0.01): 0.37+/−0.10 °C; stress-induced hyperthermia ([1]; 10 mg/kg p.o., p<0.001): 0.02+/−0.08 °C; stress-induced hyperthermia ([1]; 30 mg/kg p.o., p<0.001): −0.49+/−0.12 °C
Cc1cccc(C#C[C@@]2(O)CCC[C@@H](NC(=O)c3ccco3)C2)c1 [Example 1.20, Furan-2-carboxylic acid ((1R,3R)-3-hydroxy-3-m-tolylethynyl-cyclohexyl)-amide]	139 to 142 °C	
Cc1cccc(C#C[C@]2(O)CCC[C@H](NC(=O)c3ccco3)C2)c1 [Example 1.21, Furan-2-carboxylic acid ((1S,3S)-3-hydroxy-3-m-tolylethynyl-cyclohexyl)-amide]	139 to 140 °C	
